Values of other authors, collected in patent publication US5650415A, “Quinoline compounds” (Sugen, Inc., priority 1995, dated 1997).

Tests used:
[1] = system: human breast cancer cells; settings: Sepp-Lorenzino et al., Abstract, 1994; cited from earlier work
[2] = system: IGF-1R protein tyrosine kinase; settings: Sepp-Lorenzino et al., Abstract, 1994; cited from earlier work

COC1C=CC=C(C)C(=O)NC2=CC(=O)C=C(C2=O)C(OC)C(C)CC(OC)C(OC)C(C)C=C(C)C1OC(N)=O (centres unmarked) [Herbimycin A]
inhibition of cellular proliferation [1]: inhibit the IGF-1R protein tyrosine kinase and cellular proliferation in human breast cancer cells | inhibition of IGF-1R protein tyrosine kinase [2]: inhibit the IGF-1R protein tyrosine kinase
